Entries after “also recorded” stand apart in the source; their conditions may differ.
What was measured:
[1] = Noszal et al. 2000; cited from earlier work
[2] = cited from earlier work
[3] = test system: children with autism; test: 12-week double-blind randomized placebo-controlled study of NAC: Aberrant Behavior Checklist (ABC); type: in vivo, human
Source text: The Aberrant Behavior Checklist (ABC) is a standardized scale comprising 58 items for assessing problem behavior in subjects with mental retardation and developmental disabilities (Aman, M. et al., Am J Ment Defic. 89:492-502 (1985)). The checklist is empirically derived from ratings on approximately 1000 subjects, and the items resolve into five subscales: irritability, lethargy/social withdrawal, stereotypic behavior, hyperactivity, and inappropriate speech. High scores indicate more severe behavioral symptoms.
(§1) A 12-week, double-blind randomized, placebo-controlled study of NAC in children with autism was conducted in the Autism & Developmental Disabilities Clinic in the Division of Child & Adolescent Psychiatry at Stanford University Medical Center. The recruitment period started in March 2009 and ended in September 2010. Subjects with and without mental retardation were included. After obtaining informed consent, subjects were screened and inclusion and exclusion criteria were assessed. No changes in eligibility criteria were applied throughout the study. This investigation was approved by the institutional review board at Stanford University School of Medicine. An investigational new drug application (IND#100905) was filed with the Food and Drug Administration, and the study was registered in National Institutes of Health at ClinicalTrials.gov (identifier number NCT00627705).
After the screening phase, baseline measures were obtained from subjects continuing to meet inclusion and exclusion criteria. Subjects were then randomized to either placebo or active based on age and gender. As NAC is a nutritional supplement, the quality control is predictably variable and therefore purity is not as stringent as prescription medications. Therefore, in the present study, the stability of the compound was ascertained and the integrity of the active agent was protected by packaging each NAC doses in individual pockets. The active compound and matching placebo were provided by BioAdvantex Pharma, Inc. (Mississauga, Ontario, Canada). […] Subjects randomized to the active drug were initiated at the dose of 900 mg every day for the first 4 weeks, then 900 mg twice daily for 4 weeks and 900 mg three times daily for 4 weeks. (This dose selection was based on previously published studies for other psychiatric conditions (Grant, J. et al., Arch Gen Psychiatry, 66:468-475 (2009); Berk, M. et al., Biol Psychiatry, 64:361-368 (2008); Berk, M. et al., Bio Psychiatry, 64:468-475 (2008)) and the previous experience of our group in studies of children with cystic fibrosis). Alternatively, subjects were initiated at the dose of 900 mg per day, 1,800 mg per day, or 2,700 mg per day of NAC. Alternatively, the subjects were initiated at the dose ranging from 900 mg per day to 2,700 mg per day of NAC.
If a subject could not tolerate a specific dose, s/he would be maintained at the highest tolerated dose. Subjects were evaluated at baseline, week 4, week 8 and week 12. The Aberrant Behavioral Checklist (ABC) (Aman, M. et al., Am J Ment Defic. 89:492-502 (1985)), the Clinical Global Impressions (CGI) (Guy, W., ECDEU Assessment Manual for Psychopharmacology, Rockville, Md., U.S. Department of Health, Education, and Welfare (1976)), and the Dosage Record and Treatment Emergent Symptom Scale (DOTES) (Guy, W., 1976, ECDEU Assessment Manual for Psychopharmacology, Rockville, Md., U.S. Department of Health, Education, and Welfare) were obtained in each visit. Additional secondary measures were obtained at baseline and at week 12 and included the social responsiveness scale (SRS) (Constantino, J. et al., J. Dev Behav Pediatr., 21:2-11 (2000); Constantino, J. et al., J Autism Dev Disord., 33:427-433 (2003)), and the repetitive behavior scale-revised (RBS-R) (Bodfish, J. et al., The Repetitive Behavior Scale: A test manual (1998)). […]

[4] = test system: children with autism; test: 12-week placebo-controlled study of NAC: Repetitive Behavior Scale-Revised (RBS-R); type: in vivo, human
Source text: The Repetitive Behavior Scale-Revised (RBS-R) (Bodfish et al., The Repetitive Behavior Scale: A test manual (1998)) is an empirically derived clinical rating scale for measuring the presence and severity of a variety of forms of restricted, repetitive behavior that are characteristic of individuals with autism. The RBS-R consists of 6 subscales: stereotyped behavior, self-injurious behavior, compulsive behavior, routine behavior, sameness behavior, and restricted behavior. The scale provides an overall raw score for severity of repetitive behaviors and separate measures of severity for each subtype of repetitive behavior. High scores indicate more severe behavioral symptoms.
as §1
After the screening phase, baseline measures were obtained from subjects continuing to meet inclusion and exclusion criteria. Subjects were then randomized to either placebo or active based on age and gender. As NAC is a nutritional supplement, the quality control is predictably variable and therefore purity is not as stringent as prescription medications. Therefore, in the present study, the stability of the compound was ascertained and the integrity of the active agent was protected by packaging each NAC doses in individual pockets. The active compound and matching placebo were provided by BioAdvantex Pharma, Inc. (Mississauga, Ontario, Canada). […] Subjects randomized to the active drug were initiated at the dose of 900 mg every day for the first 4 weeks, then 900 mg twice daily for 4 weeks and 900 mg three times daily for 4 weeks. […]
If a subject could not tolerate a specific dose, s/he would be maintained at the highest tolerated dose. Subjects were evaluated at baseline, week 4, week 8 and week 12. […]

[5] = Baseline (before treatment), NAC group n = 15
[6] = all randomized participants, p>0.100
[7] = standardized mean difference NAC vs placebo at Week 12

## CC(=O)N[C@@H](CS)C(=O)O [NAC, N-acetylcysteine]
[1]
  half-cell potential of the NAC thiol/disulfide pair: about +63 mV
[2]; compared with the stable cysteine disulfide, cystine
  solubility relative to cystine: much more soluble
[2]; more stable than cysteine
  stability relative to cysteine: about 10 times
[3]; [5]
  ABC hyperactivity, Mean (SD): 23.4 (9.0)
  ABC inappropriate speech, Mean (SD): 4.9 (3.2)
  ABC irritability, Mean (SD): 16.9 (7.9)
  ABC lethargy, Mean (SD): 15.2 (9.5)
  ABC stereotypy, Mean (SD): 9.1 (5.5)
  ABC total, Mean (SD): 69.7 (24.7)
[3]; Week 12, NAC n = 14
  ABC hyperactivity, Mean (SD): 12.4 (11.4)
  ABC inappropriate speech, Mean (SD): 2.5 (2.6)
  ABC irritability, Mean (SD): 7.2 (5.7)
  ABC lethargy, Mean (SD): 11.0 (9.4)
  ABC stereotypy, Mean (SD): 5.6 (5.7)
[3]; Week 12, NAC n = 14, 900 mg daily 4 wk, twice daily 4 wk, three times daily 4 wk, high scores = more severe
  ABC total, Mean (SD): 38.7 (24.1)
[3]; all randomized participants, NAC vs placebo, effects beginning in week 4, continuing through week 8 and 12, p<0.001
  ABC-Irritability, treatment effect (Group x Time): significantly improved irritability; also recorded: significant behavioral improvements
[3]; all randomized participants, NAC vs placebo, from week 4 through week 12, p=0.010
  ABC-Total, treatment effect (Group x Time): significant effects; also recorded: significant behavioral improvements
[3]; all randomized participants, NAC vs placebo, p=0.096
  ABC-Stereotypy, treatment effect: marginally significant improvement
[3]; [6]
  ABC hyperactivity subscale, treatment effect: no significant treatment effects
  ABC inappropriate speech subscale, treatment effect: no significant treatment effects
  ABC lethargy subscale, treatment effect: no significant treatment effects
[3]; [7]
  ABC inappropriate speech, Cohen's d: .35
  ABC irritability, Cohen's d: .72
  ABC lethargy, Cohen's d: −.32
  ABC stereotypy, Cohen's d: .37
  ABC total, Cohen's d: .63
[4]; [5]
  RBS total, Mean (SD): 33.1 (16.2)
[4]; Week 12, NAC n = 14
  RBS total, Mean (SD): 22.3 (12.0)
[4]; all randomized participants, NAC vs placebo, p=0.015
  RBS-Total, treatment effect: significant improvement
[4]; [7]
  RBS total, Cohen's d: .57

— patent US20130296430A1, “COMPOSITIONS AND METHODS FOR TREATING AUTISM AND AUTISM SPECTRUM DISORDER” (priority 2012, published 2013)
